The NIST ThermoML archive (doi:10.1016/j.fluid.2014.09.014)

Experiment: refractive index (other wavelength) (dimensionless); xn = mol fraction of the nth substance listed
Details: 101 kPa, Liquid, Standard Abbe refractometry

CC(C)OC(C)C [diisopropyl ether] + CO
refractive index
Details | Wavelength=40.47 nm | Wavelength=435.8 nm | Wavelength=486.1 nm | Wavelength=546.1 nm | Wavelength=587.6 nm | Wavelength=589.3 nm | Wavelength=632.8 nm | Wavelength=644 nm | Wavelength=706.5 nm
308.15 K, x2 = 0 | – | 1.36739 | 1.36407 | 1.36127 | 1.36127 | 1.35983 | 1.35853 | 1.35823 | 1.35683
308.15 K, x2 = 0.0423 | – | – | 1.36395 | 1.36116 | 1.35972 | 1.35967 | 1.35842 | 1.35813 | 1.35672
308.15 K, x2 = 0.0424 | – | 1.36729 | 1.36404 | 1.36107 | 1.35977 | 1.35973 | 1.35859 | 1.35825 | 1.35677
308.15 K, x2 = 0.082 | – | 1.36727 | 1.36394 | 1.36114 | 1.35971 | 1.35966 | 1.35842 | 1.35812 | 1.35671
308.15 K, x2 = 0.0822 | 1.37037 | 1.36742 | 1.36409 | 1.3613 | 1.35986 | 1.3598 | 1.35855 | 1.35825 | 1.35685
308.15 K, x2 = 0.1171 | 1.37018 | 1.36725 | 1.36394 | 1.36113 | 1.3597 | 1.35965 | 1.35843 | 1.35814 | 1.35672
308.15 K, x2 = 0.1271 | 1.37021 | 1.36728 | 1.36394 | 1.36115 | 1.35972 | 1.35966 | 1.35843 | 1.35813 | 1.35672
308.15 K, x2 = 0.1827 | 1.36993 | 1.367 | 1.36368 | 1.3609 | 1.35947 | 1.35942 | 1.35818 | 1.35788 | 1.35648
308.15 K, x2 = 0.2162 | 1.36973 | 1.36681 | 1.36351 | 1.36071 | 1.35928 | 1.35923 | 1.35801 | 1.35771 | 1.35631
308.15 K, x2 = 0.251 | 1.36934 | 1.36642 | 1.36312 | 1.36037 | 1.35892 | 1.35889 | 1.35764 | 1.35735 | 1.35595
308.15 K, x2 = 0.3298 | 1.36925 | 1.36633 | 1.36304 | 1.36029 | 1.35886 | 1.35881 | 1.35757 | 1.35728 | 1.35588
308.15 K, x2 = 0.3577 | 1.36902 | 1.36611 | 1.36275 | 1.36006 | 1.35865 | 1.35856 | 1.35731 | 1.35703 | 1.35565
308.15 K, x2 = 0.4497 | 1.36699 | 1.36412 | 1.36085 | 1.35815 | 1.35673 | 1.35668 | 1.35545 | 1.35516 | 1.35375
308.15 K, x2 = 0.4525 | 1.36743 | 1.36455 | 1.36128 | 1.35854 | 1.35714 | 1.35709 | 1.35586 | 1.35557 | 1.35416
308.15 K, x2 = 0.522 | 1.36511 | 1.3623 | 1.35907 | 1.35635 | 1.35495 | 1.3549 | 1.3537 | 1.35341 | 1.35202
308.15 K, x2 = 0.5543 | 1.36433 | 1.36152 | 1.35831 | 1.35561 | 1.35422 | 1.35417 | 1.35297 | 1.35268 | 1.35129
308.15 K, x2 = 0.609 | 1.36183 | 1.35906 | 1.35589 | 1.35321 | 1.35182 | 1.35177 | 1.35057 | 1.35028 | 1.34894
308.15 K, x2 = 0.6529 | 1.36027 | 1.35752 | 1.35437 | 1.35171 | 1.35032 | 1.35027 | 1.34908 | 1.34881 | 1.34745
308.15 K, x2 = 0.7504 | 1.35626 | 1.35356 | 1.35046 | 1.34787 | 1.34649 | 1.34644 | 1.34527 | 1.345 | 1.34368
308.15 K, x2 = 0.804 | 1.35193 | 1.34931 | 1.34626 | 1.34371 | 1.34236 | 1.34231 | 1.34115 | 1.34088 | 1.33959
308.15 K, x2 = 0.807 | 1.3517 | 1.34907 | 1.34606 | 1.3435 | 1.34213 | 1.34208 | 1.34093 | 1.34066 | 1.33939
308.15 K, x2 = 0.8727 | 1.34787 | 1.3453 | 1.34228 | 1.33978 | 1.33843 | 1.33838 | 1.33724 | 1.33698 | 1.33572
308.15 K, x2 = 0.9233 | 1.33956 | 1.33712 | 1.33421 | 1.33175 | 1.33046 | 1.33042 | 1.32933 | 1.32908 | 1.32789
308.15 K, x2 = 0.9253 | 1.34157 | 1.33909 | 1.33616 | 1.33368 | 1.33239 | 1.33234 | 1.33125 | 1.331 | 1.32976
308.15 K, x2 = 0.9527 | 1.33839 | 1.33598 | 1.33306 | 1.33062 | 1.32932 | 1.32928 | 1.32818 | 1.32794 | 1.32672
308.15 K, x2 = 0.9773 | 1.33485 | 1.3325 | 1.3296 | 1.32717 | 1.32591 | 1.32586 | 1.32479 | 1.32455 | 1.32336
308.15 K, x2 = 0.989 | 1.33356 | 1.33124 | 1.32836 | 1.32594 | 1.32469 | 1.32465 | 1.32358 | 1.32334 | 1.32216
308.15 K, x2 = 0.9964 | 1.33249 | 1.33018 | 1.32731 | 1.32489 | 1.32366 | 1.32361 | 1.32256 | 1.32232 | 1.32114
313.15 K, x2 = 0 | 1.3674 | 1.36447 | 1.36119 | 1.35842 | 1.357 | – | – | – | –
313.15 K, x2 = 0.0423 | 1.36734 | 1.36444 | 1.36111 | 1.35837 | 1.35693 | – | – | – | –
313.15 K, x2 = 0.0424 | 1.3674 | 1.36447 | 1.36115 | 1.35839 | 1.35696 | – | – | – | –
313.15 K, x2 = 0.082 | 1.36731 | 1.3644 | 1.36108 | 1.35823 | 1.35691 | – | – | – | –
313.15 K, x2 = 0.0822 | 1.3675 | 1.36459 | 1.36126 | 1.35853 | 1.3571 | – | – | – | –
313.15 K, x2 = 0.1171 | 1.36734 | 1.36445 | 1.36113 | 1.35838 | 1.35696 | – | – | – | –
313.15 K, x2 = 0.1271 | 1.36736 | 1.36445 | 1.36113 | 1.35841 | 1.35696 | – | – | – | –
313.15 K, x2 = 0.1827 | 1.36712 | 1.36423 | 1.36091 | 1.35818 | 1.35676 | – | – | – | –
313.15 K, x2 = 0.2162 | 1.36696 | 1.36405 | 1.36077 | 1.35802 | 1.35661 | – | – | – | –
313.15 K, x2 = 0.251 | 1.36648 | 1.36361 | 1.36031 | 1.35759 | 1.35617 | – | – | – | –
313.15 K, x2 = 0.3298 | 1.36657 | 1.36371 | 1.36044 | 1.3577 | 1.35627 | – | – | – | –
313.15 K, x2 = 0.3577 | 1.36568 | 1.36268 | 1.35958 | 1.35686 | 1.35545 | – | – | – | –
313.15 K, x2 = 0.4497 | 1.36434 | 1.36152 | 1.3583 | 1.35561 | 1.35419 | – | – | – | –
313.15 K, x2 = 0.4525 | 1.36476 | 1.36193 | 1.35868 | 1.35599 | 1.35459 | – | – | – | –
313.15 K, x2 = 0.522 | 1.36255 | 1.35976 | 1.35655 | 1.35386 | 1.35246 | – | – | – | –
313.15 K, x2 = 0.5543 | 1.36165 | 1.35887 | 1.35569 | 1.353 | – | – | – | – | –
313.15 K, x2 = 0.609 | 1.35929 | 1.35654 | 1.3534 | 1.35074 | – | – | – | – | –
313.15 K, x2 = 0.6529 | 1.35769 | 1.35496 | 1.35191 | 1.34921 | – | – | – | – | –
313.15 K, x2 = 0.7504 | 1.35369 | 1.35104 | 1.34795 | 1.34538 | – | – | – | – | –
313.15 K, x2 = 0.804 | 1.34918 | 1.34656 | 1.34353 | 1.341 | – | – | – | – | –
313.15 K, x2 = 0.807 | 1.34928 | 1.34668 | 1.34363 | 1.34112 | – | – | – | – | –
313.15 K, x2 = 0.8727 | 1.3456 | 1.34306 | 1.34009 | 1.33757 | – | – | – | – | –
313.15 K, x2 = 0.9233 | 1.33747 | 1.33508 | 1.33213 | 1.3297 | – | – | – | – | –
313.15 K, x2 = 0.9253 | 1.33918 | 1.33674 | 1.3338 | 1.33136 | – | – | – | – | –
313.15 K, x2 = 0.9527 | 1.33616 | 1.33377 | 1.33085 | 1.32843 | – | – | – | – | –
313.15 K, x2 = 0.9773 | 1.33271 | 1.3304 | 1.32749 | 1.32509 | – | – | – | – | –
313.15 K, x2 = 0.989 | 1.33146 | 1.32916 | 1.32628 | 1.32387 | – | – | – | – | –
313.15 K, x2 = 0.9964 | 1.33048 | 1.3282 | 1.32531 | 1.32292 | – | – | – | – | –
